These are literature values, as cited in patent US7326683B2, “Treatment of membrane-associated diseases and disorders using lantibiotic containing compositions” (Molichem Medicines, Inc., priority 2004, dated 2008).

Series [1] concerns clatharin-coated vesicle. Particulars: clatharin-coated vesicle acidification; Stone et al., J. Biol. Chem. 259: 2701-2703 (1984).
The conditions of series [2]: aspirin used after the sentinel event, atherosclerotic heart disease (ASHD).

duramycin: the “inhibition of the proton translocation facilitated by chloride translocation” value in series [1] is listed as “up to 50%”.
In the case of `CC(=O)Oc1ccccc1C(=O)O` [aspirin], the “decrease of risk of MI” value in series [2] was “approximately 50%”.
